Results: ChEMBL document CHEMBL3856212, “Synthesis, anti-proliferative and genotoxicity studies of 6-chloro-5-(2-substituted-ethyl)-1,3-dihydro-2H-indol-2-ones and 6-chloro-5-(2-chloroethyl)-3-(alkyl/ary-2-ylidene)indolin-2-ones” (Eur J Med Chem, 2016)

What was measured:
[1] = Cytotoxicity against human M14 cells assessed as assessed as growth inhibition at 10^-5 M after 48 hrs by SRB assay relative to control; type: functional; details: M14, 48 h, read-out: GI
[2] = Cytotoxicity against human HCC2998 cells assessed as growth inhibition after 48 hrs by SRB assay; type: functional; details: HCC 2998, 48 h; for CC50: read-out: LD50 (the source's name)
[3] = Induction of apoptosis in mouse EAC cells at 250 uM after 24 hrs by acridine orange dye-based fluorescence microscopy (reference value: 0.66 +/- 0.33%); type: cell-based; details: ehrlich
[4] = Cytotoxicity against human U251 cells assessed as assessed as growth inhibition at 10^-5 M after 48 hrs by SRB assay relative to control; type: functional; details: U-251, 48 h, read-out: GI
[5] = Cytotoxicity against human MDA-MB-435 cells assessed as assessed as growth inhibition at 10^-5 M after 48 hrs by SRB assay relative to control; type: functional; details: MDA-MB-435, 48 h, read-out: GI
[6] = Cytotoxicity against human EKVX cells assessed as growth inhibition after 48 hrs by SRB assay; type: functional; details: for CC50: read-out: LD50 (the source's name)
[7] = Cytotoxicity against human UACC62 cells assessed as assessed as growth inhibition at 10^-5 M after 48 hrs by SRB assay relative to control; type: functional; details: UACC-62, 48 h, read-out: GI
[8] = Cytotoxicity against human SK-MEL-28 cells assessed as assessed as growth inhibition at 10^-5 M after 48 hrs by SRB assay relative to control; type: functional; details: SK-MEL-28, 48 h, read-out: GI
[9] = Cytotoxicity against human SNB19 cells assessed as assessed as growth inhibition at 10^-5 M after 48 hrs by SRB assay relative to control; type: functional; details: SNB-19, 48 h, read-out: GI
[10] = Cytotoxicity against human IGROV1 cells assessed as assessed as growth inhibition at 10^-5 M after 48 hrs by SRB assay relative to control; type: functional; details: IGROV-1, 48 h, read-out: GI
[11] = Cytotoxicity against human SK-MEL-2 cells assessed as assessed as growth inhibition at 10^-5 M after 48 hrs by SRB assay relative to control; type: functional; details: SK-MEL-2, 48 h, read-out: GI
[12] = Cytotoxicity against human NCI-H522 cells assessed as growth inhibition after 48 hrs by SRB assay; type: functional; details: NCI-H522, 48 h; for CC50: read-out: LD50 (the source's name)
[13] = Cytotoxicity against human RXF393 cells assessed as growth inhibition after 48 hrs by SRB assay; type: functional; details: RXF 393, 48 h; for CC50: read-out: LD50 (the source's name)
[14] = Cytotoxicity against human A498 cells assessed as growth inhibition after 48 hrs by SRB assay; type: functional; details: A498, 48 h; for CC50: read-out: LD50 (the source's name)
[15] = Cytotoxicity against human SKOV3 cells assessed as assessed as growth inhibition at 10^-5 M after 48 hrs by SRB assay relative to control; type: functional; details: SK-OV-3, 48 h, read-out: GI
[16] = Cytotoxicity against human BT549 cells assessed as assessed as growth inhibition at 10^-5 M after 48 hrs by SRB assay relative to control; type: functional; details: BT-549, 48 h, read-out: GI
[17] = Cytotoxicity against human UACC257 cells assessed as growth inhibition after 48 hrs by SRB assay; type: functional; details: UACC-257, 48 h; for CC50: read-out: LD50 (the source's name)
[18] = Cytotoxicity against human MDA-MB-231 cells assessed as assessed as growth inhibition at 10^-5 M after 48 hrs by SRB assay relative to control; type: functional; details: MDA-MB-231, 48 h, read-out: GI
[19] = Cytotoxicity against human OVCAR3 cells assessed as growth inhibition after 48 hrs by SRB assay; type: functional; details: OVCAR-3, 48 h; for CC50: read-out: LD50 (the source's name)
[20] = Cytotoxicity against human SK-MEL-2 cells assessed as growth inhibition after 48 hrs by SRB assay; type: functional; details: SK-MEL-2, 48 h; for CC50: read-out: LD50 (the source's name)
[21] = Cytotoxicity against human NCI-H23 cells assessed as growth inhibition after 48 hrs by SRB assay; type: functional; details: NCI-H23, 48 h; for CC50: read-out: LD50 (the source's name)
[22] = Cytotoxicity against human HT-29 cells assessed as assessed as growth inhibition at 10^-5 M after 48 hrs by SRB assay relative to control; type: functional; details: HT-29, 48 h, read-out: GI
[23] = Cytotoxicity against human NCI-H522 cells assessed as assessed as growth inhibition at 10^-5 M after 48 hrs by SRB assay relative to control; type: functional; details: NCI-H522, 48 h, read-out: GI
[24] = Cytotoxicity against human SNB75 cells assessed as growth inhibition after 48 hrs by SRB assay; type: functional; details: SNB-75, 48 h; for CC50: read-out: LD50 (the source's name)
[25] = Cytotoxicity against human OVCAR5 cells assessed as growth inhibition after 48 hrs by SRB assay; type: functional; details: OVCAR-5, 48 h; for CC50: read-out: LD50 (the source's name)
[26] = Cytotoxicity against human A549 cells assessed as assessed as growth inhibition at 10^-5 M after 48 hrs by SRB assay relative to control; type: functional; details: A549, 48 h, read-out: GI
[27] = Cytotoxicity against human HCT116 cells assessed as growth inhibition after 48 hrs by SRB assay; type: functional; details: HCT-116, 48 h; for CC50: read-out: LD50 (the source's name)
[28] = Cytotoxicity against human K562 cells assessed as growth inhibition after 48 hrs by SRB assay; type: functional; details: K562, 48 h; for CC50: read-out: LD50 (the source's name)
[29] = Cytotoxicity against human OVCAR4 cells assessed as growth inhibition after 48 hrs by SRB assay; type: functional; details: OVCAR-4, 48 h; for CC50: read-out: LD50 (the source's name)
[30] = Cytotoxicity against human MDA-MB-231 cells assessed as growth inhibition after 48 hrs by SRB assay; type: functional; details: MDA-MB-231, 48 h; for CC50: read-out: LD50 (the source's name)
[31] = Cytotoxicity against human MCF7 cells assessed as assessed as growth inhibition at 10^-5 M after 48 hrs by SRB assay relative to control; type: functional; details: MCF7, 48 h, read-out: GI
[32] = Cytotoxicity against human Hs 578T cells assessed as growth inhibition after 48 hrs by SRB assay; type: functional; details: for CC50: read-out: LD50 (the source's name)
[33] = Cytotoxicity against human TK10 cells assessed as assessed as growth inhibition at 10^-5 M after 48 hrs by SRB assay relative to control; type: functional; details: TK-10, 48 h, read-out: GI

Compound: O=C1Cc2cc(CCn3ccnc3)c(Cl)cc2N1
- inhibition of growth at 10 µM [1]: 76.3%
- GI50 [2]: 3220 nM
- TGI [2]: > 1000 nM
- CC50 [2]: > 1000 nM
- Activity [3]: 0.5%
- inhibition of growth at 10 µM [4]: 32.7%
- inhibition of growth at 10 µM [5]: 72%
- GI50 [6]: 6130 nM
- TGI [6]: > 1000 nM
- CC50 [6]: > 1000 nM
- inhibition of growth at 10 µM [7]: 29.8%
- inhibition of growth at 10 µM [8]: 32.2%
- inhibition of growth at 10 µM [9]: 28.5%
- inhibition of growth at 10 µM [10]: 13.3%
- inhibition of growth at 10 µM [11]: 19.3%
- GI50 [12]: 4740 nM
- TGI [12]: 4790 nM
- CC50 [12]: > 1000 nM
- GI50 [13]: 6280 nM
- TGI [13]: > 1000 nM
- CC50 [13]: > 1000 nM
- GI50 [14]: 2190 nM
- TGI [14]: 6110 nM
- CC50 [14]: > 1000 nM
- inhibition of growth at 10 µM [15]: 21.4%
- inhibition of growth at 10 µM [16]: 30.3%
- CC50 [17]: > 1000 nM
- inhibition of growth at 10 µM [18]: 54.5%
- GI50 [19]: 9310 nM
- TGI [19]: 7810 nM
- CC50 [19]: > 1000 nM
- GI50 [20]: 5780 nM
- TGI [20]: 7360 nM
- CC50 [20]: > 1000 nM
- GI50 [21]: 4080 nM
- TGI [21]: > 1000 nM
- CC50 [21]: > 1000 nM
- inhibition of growth at 10 µM [22]: 1.22%
- inhibition of growth at 10 µM [23]: 55.2%
- GI50 [24]: 2160 nM
- TGI [24]: > 1000 nM
- CC50 [24]: > 1000 nM
- GI50 [25]: 4480 nM
- TGI [25]: > 1000 nM
- CC50 [25]: > 1000 nM
- inhibition of growth at 10 µM [26]: 33.3%
- GI50 [27]: 1310 nM
- TGI [27]: > 1000 nM
- CC50 [27]: > 1000 nM
- GI50 [28]: 8260 nM
- TGI [28]: > 1000 nM
- CC50 [28]: > 1000 nM
- GI50 [29]: 4500 nM
- TGI [29]: > 1000 nM
- CC50 [29]: > 1000 nM
- GI50 [30]: 5180 nM
- TGI [30]: > 1000 nM
- CC50 [30]: > 1000 nM
- inhibition of growth at 10 µM [31]: 77.1%
- GI50 [32]: 8730 nM
- TGI [32]: 9920 nM
- CC50 [32]: > 1000 nM
- inhibition of growth at 10 µM [33]: -23.4%

Compound: O=C1Cc2cc(CCN3CCNCC3)c(Cl)cc2N1
- inhibition of growth at 10 µM [1]: 75.5%
- GI50 [2]: 4660 nM
- TGI [2]: > 1000 nM
- CC50 [2]: > 1000 nM
- Activity [3]: 1.06%
- inhibition of growth at 10 µM [4]: 43%
- inhibition of growth at 10 µM [5]: 82%
- GI50 [6]: 3580 nM
- TGI [6]: > 1000 nM
- CC50 [6]: > 1000 nM
- inhibition of growth at 10 µM [7]: 44.8%
- inhibition of growth at 10 µM [8]: 42.2%
- inhibition of growth at 10 µM [9]: 42.4%
- inhibition of growth at 10 µM [10]: 11%
- inhibition of growth at 10 µM [11]: 53.9%
- GI50 [12]: 4880 nM
- TGI [12]: > 1000 nM
- CC50 [12]: > 1000 nM
- GI50 [13]: 6890 nM
- TGI [13]: > 1000 nM
- CC50 [13]: > 1000 nM
- GI50 [14]: 2850 nM
- TGI [14]: > 1000 nM
- CC50 [14]: > 1000 nM
- inhibition of growth at 10 µM [15]: 33.2%
- inhibition of growth at 10 µM [16]: 40.9%
- GI50 [17]: 6520 nM
- TGI [17]: > 1000 nM
- CC50 [17]: > 1000 nM
- inhibition of growth at 10 µM [18]: 64.1%
- GI50 [19]: 1410 nM
- TGI [19]: > 1000 nM
- CC50 [19]: > 1000 nM
- GI50 [20]: 1520 nM
- TGI [20]: > 1000 nM
- CC50 [20]: > 1000 nM
- GI50 [21]: 4640 nM
- TGI [21]: > 1000 nM
- CC50 [21]: > 1000 nM
- inhibition of growth at 10 µM [22]: 11.9%
- inhibition of growth at 10 µM [23]: 73.6%
- GI50 [24]: 1560 nM
- TGI [24]: 7540 nM
- CC50 [24]: > 1000 nM
- GI50 [25]: 7920 nM
- TGI [25]: > 1000 nM
- CC50 [25]: > 1000 nM
- inhibition of growth at 10 µM [26]: 51.1%
- GI50 [27]: 1000 nM
- TGI [27]: > 1000 nM
- CC50 [27]: > 1000 nM
- GI50 [28]: 6240 nM
- TGI [28]: > 1000 nM
- CC50 [28]: > 1000 nM
- GI50 [29]: 8780 nM
- TGI [29]: > 1000 nM
- CC50 [29]: > 1000 nM
- GI50 [30]: 3900 nM
- TGI [30]: > 1000 nM
- CC50 [30]: > 1000 nM
- inhibition of growth at 10 µM [31]: 74.9%
- GI50 [32]: 1570 nM
- TGI [32]: > 1000 nM
- CC50 [32]: > 1000 nM
- inhibition of growth at 10 µM [33]: 10.9%
